Experimental data as given in patent publication US7541021B2, “Process for preparation of a sterile suspension of corticosteroid particles for the administration by inhalation” (Chiesi Farmaceutici S.p.A., priority 2002, dated 2009).

Tests used:
[1] = Elimination of 17-BMP after nebulisation of aqueous BDP suspensions versus pressurised aerosol suspensions; assay type: in vivo; conditions: after aqueous suspensions of BDP by nebulisation, compared with suspension formulations as pressurised aerosols
Description: It has also been observed that due to the formation of the monoester in the lung cells, the elimination half-life and the mean residence time of 17-BMP are longer after the administration of aqueous suspensions of BDP by nebulisation than formulations in suspension administered in the form of pressurised aerosols.

[2] = system: microsomes of human lung cells; assay: Formation of fatty acid esters of 17-BMP in lung microsomes; assay type: in vitro ADME
[3] = Apparent volumes and densities (European Pharmacopoeia 2.9.15) of micronised BDP powder; assay type: physicochemical; conditions: for dv, apparent density before settling: 100 g in 250 ml cylinder; for ds, apparent density after packing: after compacting
Procedure: The apparent volumes and densities were measured according to the European Pharmacopoeia, 4th edition, paragraph 2.9.15. 100 g of the test substance is introduced into a dry 250 ml cylinder without compacting it. The unsettled apparent volume (Vo) is read off, then 10, 500 and 1250 taps are performed, and volumes (V10, V500 and V1250) are read. If the difference between V500 and V1250 is greater than 2 ml, 1250 further taps are performed (V2500).

[4] = Particle size of micronised BDP by Malvern apparatus; assay type: physicochemical; conditions: micronised powder
Procedure: The dimensional characteristics of the particles were also evaluated by using a Malvern apparatus. This type of test exploits the diffraction of a laser beam by the particles to determine the size distribution of the particles in suspension. The parameter considered is the median volumetric diameter in μm of 10%, 50% and 90% of the particles, expressed as d(v,0.1), d(v,0.5) and d(v,0.9) respectively, which is determined by assuming that the particles have a geometrical shape equivalent to a sphere. Advantageously, in the suspension formulation of the invention, the d(v,0.9) after sonication is less than 8 μm and the d(v,0.5) is comprised between 2 and 3.5 μm.

Row | SMILES | elimination half-life [1] | mean residence time [1] | Formation of stable esters with long-chain fatty acids such as oleic acid [2] | Cs, packing capacity (difference between V10 and V500) [3] [mL] | dv, apparent density before settling [3] [g/mL] | ds, apparent density after packing [3] [g/mL] | Particle size d (v, 0.1) [4] [μm] | Particle size d (v, 0.5) [4] [μm] | Particle size d (v, 0.9) [4] [μm]
1 | CCC(=O)O[C@]1(C(=O)CO)[C@@H](C)C[C@H]2[C@@H]3CCC4=CC(=O)C=C[C@]4(C)[C@@]3(Cl)[C@@H](O)C[C@@]21C [17-BMP, beclomethasone-17-monopropionate] | longer | longer | are formed |  |  |  |  |  | 
2 | CCC(=O)OCC(=O)[C@@]1(OC(=O)CC)[C@@H](C)C[C@H]2[C@@H]3CCC4=CC(=O)C=C[C@]4(C)[C@@]3(Cl)[C@@H](O)C[C@@]21C [Irradiated BDP, beclomethasone dipropionate] |  |  |  | 12 | 0.32 | 0.42 | 0.48 | 1.81 | 5.73
3 | CCC(=O)OCC(=O)[C@@]1(OC(=O)CC)[C@@H](C)C[C@H]2[C@@H]3CCC4=CC(=O)C=C[C@]4(C)[C@@]3(Cl)[C@@H](O)C[C@@]21C [Non-irradiated BDP, beclomethasone dipropionate] |  |  |  | 16 | 0.21 | 0.27 | 0.49 | 1.91 | 5.98
